Results as given in patent publication US20240246920A1, “TRIAZOLE DERIVATIVES WITH ANTIFUNGAL ACTIVITY” (King's College London, priority 2020, published 2024).
≈ marks a conversion by molar mass, not a printed value. Where two headings read alike, the source gives them in different places.

How the values were obtained:
[1] = system: C. albicans NCPF3281; experiment: Candida panel MIC, serial dilution in 96-well plates; format: cell-based, Candida albicans; settings: NCPF3281, read-out: MIC C. albicans NCPF3281
Description: (§1) The minimum inhibitory concentration of test compounds were determined in a panel of Candida species (see Table 4 below), using the a serial dilution method in 96-well plates using the following protocol.
(§2) Starter cultures of fungal strains to be tested were grown in 3 mL of RPMI 2% glucose media incubated at 37° C. with shaking at 200 rpm overnight. The culture media used was 900 mL H2O; 10.4 g RPMI 1640 (with L-glutamine and a pH indicator but without bicarbonate); 34.5 g MOPS and 18 g glucose. The pH of the media was adjusted to 7.0 with 1 M sodium hydroxide.
(§3) Solutions of the compound to be tested were prepared by dissolving the compound in DMSO and subsequently into media to the desired concentrations. 200 μL of compound solution was then added to the wells of the 96-well plate using a serial dilution method row-by row of the plate to give a compound concentration gradient across the plate of from 128 μg/mL to 0.25 μg/mL. The last two rows of each plate were control rows containing the culture media alone and the media plus fungi.
(§4) The fungi starter cultures were diluted 1:10 in water in cuvettes. This was then further diluted to an optical density (OD600) of 0.01 in media. 100 μL of the fungi was added to each well giving a starting concentration of fungus of 0.5-5×10^5/mL. One species of fungus was used on each plate. The plates were then held at 37° C. for 24 hours.
(§5) A plate reader was used to measure growth in each well at OD530 nm and the MIC was determined for each test compound. The MIC is defined as the lowest concentration giving rise to inhibition of ≥50% of that of the drug-free control well containing the fungus and media.

[2] = system: C. tropicalis NCPF8760; experiment: as above; format: cell-based
Description: as §1, §2, §3, §4, §5

[3] = system: Candida auris TDG1102; experiment: as above; format: cell-based; settings: Candidozyma auris, TDG1102; Table 4, extended panel; 24 hours, ≥50% inhibition; read-out: MIC Candida auris TDG1102
Description: as §1, §2, §3, §4, §5

[4] = system: C. auris TDG1912; experiment: as above; format: cell-based; settings: Candidozyma auris, TDG1912; Table 4; 24 hours, ≥50% inhibition; read-out: MIC C. auris TDG1912
Description: as §1, §2, §3, §4, §5

[5] = system: Candida auris TDG2512; experiment: as above; format: cell-based; settings: Candidozyma auris, TDG2512; Table 4, extended panel; 24 hours, ≥50% inhibition; read-out: MIC Candida auris TDG2512
Description: as §1, §2, §3, §4, §5

[6] = system: Candida auris TDG2506; experiment: microbe, parasite or virus in culture; format: cell-based; settings: Candidozyma auris, TDG2506; Table 4, extended panel; 24 hours, ≥50% inhibition; read-out: MIC Candida auris TDG2506
Description: as §1, §2
(§6) Solutions of the compound to be tested were prepared by dissolving the compound in DMSO and subsequently into media to the desired concentrations. […] The last two rows of each plate were control rows containing the culture media alone and the media plus fungi.
as §4, §5
(§7) The Candida auris strains shown in Table 7 were either taken from the National Collection of Pathogenic Fungi (NCPF) or collected as part of ongoing surveillance studies. The strains were characterised as follows.

[7] = system: Candida auris TDG2211; experiment: microbe, parasite or virus in culture; format: cell-based; settings: Candidozyma auris, TDG2211; Table 4, extended panel; 24 hours, ≥50% inhibition; read-out: MIC Candida auris TDG2211
Description: as §1, §2, §6, §4, §5, §7

[8] = system: C. parapsilosis NCPF3209; experiment: microbe, parasite or virus in culture; format: cell-based, Candida parapsilosis; settings: Lodderomyces parapsilosis
Description: as §1, §2, §6, §4, §5

[9] = system: C. krusei NCPF3876; experiment: microbe, parasite or virus in culture; format: cell-based, Candida krusei; settings: Pichia kudriavzevii
Description: as §1, §2, §6, §4, §5

[10] = system: C. albicans 3882; experiment: Candida albicans panel MIC; format: cell-based; settings: Table 6, Candida albicans panel
Description: as §1, §2, §3, §4, §5
(§8) The compounds shown in Table 6 were tested against a further panel of Candida albicans.

[11] = system: C. albicans 3880; experiment: Candida albicans panel MIC; format: cell-based; settings: Table 6, Candida albicans panel
Description: as §1, §2, §3, §4, §5, §8

[12] = system: C. albicans 3645; experiment: Candida albicans panel MIC; format: cell-based; settings: Table 6, Candida albicans panel
Description: as §1, §2, §3, §4, §5, §8

[13] = system: C. albicans 3363; experiment: Candida albicans panel MIC; format: cell-based; settings: Table 6, Candida albicans panel
Description: as §1, §2, §3, §4, §5, §8

[14] = system: C. albicans 8112; experiment: Candida albicans panel MIC; format: cell-based; settings: Table 6, Candida albicans panel
Description: as §1, §2, §3, §4, §5, §8

[15] = system: C. albicans 3881; experiment: Candida albicans panel MIC; format: cell-based; settings: Table 6, Candida albicans panel
Description: as §1, §2, §3, §4, §5, §8

[16] = system: C. albicans 3990; experiment: Candida albicans panel MIC; format: cell-based; settings: Table 6, Candida albicans panel
Description: as §1, §2, §3, §4, §5, §8

[17] = system: C. auris 8971; experiment: Candida panel MIC, serial dilution in 96-well plates; format: cell-based, Candida auris; settings: Candidozyma auris, 8971; Table 4, extended panel; 24 hours, ≥50% inhibition; read-out: MIC C. auris 8971
Description: as §1, §2, §6, §4, §5, §7

[18] = system: C. auris 8984; experiment: as above; format: cell-based, Candida auris; settings: Candidozyma auris, 8984; Table 4, extended panel; 24 hours, ≥50% inhibition; read-out: MIC C. auris 8984
Description: as §1, §2, §6, §4, §5, §7

[19] = system: C. auris 8977; experiment: as above; format: cell-based, Candida auris; settings: Candidozyma auris, 8977; Table 4, extended panel; 24 hours, ≥50% inhibition; read-out: MIC C. auris 8977
Description: as §1, §2, §6, §4, §5, §7

[20] = system: C. glabrata NCPF8018; experiment: as above; format: cell-based, Candida glabrata; settings: Nakaseomyces glabratus
Description: as §1, §2, §6, §4, §5

[21] = Candida albicans, Table 4, common panel, 24 hours, ≥50% inhibition
[22] = Table 6, Candida albicans panel
[23] = NCPF8760, Table 4, common panel, 24 hours, ≥50% inhibition, read-out: MIC C. tropicalis NCPF8760
[24] = NCPF3209, Table 4, common panel, 24 hours, ≥50% inhibition, read-out: MIC C. parapsilosis NCPF3209
[25] = NCPF3876, Table 4, common panel, 24 hours, ≥50% inhibition, read-out: MIC C. krusei NCPF3876
[26] = NCPF8018, Table 4, common panel, 24 hours, ≥50% inhibition, read-out: MIC C. glabrata NCPF8018
[27] = NCPF8760, read-out: MIC C. Tropicalis NCPF8760
[28] = NCPF3209, read-out: MIC C. Parapsilosis NCPF3209
[29] = NCPF3876, read-out: MIC C. Krusei NCPF3876
[30] = NCPF8018, read-out: MIC C. Glabrata NCPF8018

Compound	MIC [1, 21]	MIC [1, 22]	MIC [2, 23]	MIC [3]	MIC [4]	MIC [5]	MIC [6]	MIC [7]	MIC [8, 24]	MIC [9, 25]	MIC [10]	MIC [11]	MIC [12]	MIC [13]	MIC [14]	MIC [15]	MIC [17]	MIC [18]	MIC [19]	MIC [20, 26]	also measured
OC(CN1CCC(Nc2ccc(Cc3ccccc3)cc2)CC1)(Cn1cncn1)c1ccc(F)cc1F (centres unmarked) [Example 11, 1-(4-((4-benzylphenyl)amino)piperidin-1-yl)-2-(2,4-difluorophenyl)-3-(1H-1,2,4-triazol-1-yl)propan-2-ol]	≤ 0.125 µg/mL	≤ 0.00098 µg/mL	≤ 0.125 µg/mL	≤ 0.125 µg/mL	0.125 µg/mL (≈ 0.248 µM)	≤ 0.125 µg/mL	≤ 0.125 µg/mL	≤ 0.125 µg/mL	≤ 0.125 µg/mL	≤ 0.125 µg/mL	0.0625 µg/mL (≈ 0.124 µM)	0.0313 µg/mL (≈ 0.0622 µM)	0.00391 µg/mL (≈ 0.00776 µM)	0.0156 µg/mL (≈ 0.031 µM)	0.00195 µg/mL (≈ 0.00387 µM)	0.0313 µg/mL (≈ 0.0622 µM)	≤ 0.125 µg/mL	≤ 0.125 µg/mL	≤ 0.125 µg/mL	≤ 0.125 µg/mL	MIC [16]: 0.0039 to 0.0625 µg/mL (≈ 0.00774 to 0.124 µM)
OC(CN1CCC(N2CCC(Nc3ccc(Cc4ccccc4)cc3)CC2)CC1)(Cn1cncn1)c1ccc(F)cc1F (centres unmarked) [Example 12, 1-(4-((4-benzylphenyl)amino)-[1,4′-bipiperidin]-1′-yl)-2-(2,4-difluorophenyl)-3-(1H-1,2,4-triazol-1-yl)propan-2-ol]	≤ 0.125 µg/mL	0.002 to 0.004 µg/mL (≈ 0.00341 to 0.00682 µM)	≤ 0.125 µg/mL	≤ 0.125 µg/mL	0.125 µg/mL (≈ 0.213 µM)	≤ 0.125 µg/mL	≤ 0.125 µg/mL	≤ 0.125 µg/mL	≤ 0.125 µg/mL	≤ 0.125 µg/mL	0.0625 µg/mL (≈ 0.107 µM)	0.0313 µg/mL (≈ 0.0533 µM)	0.00391 µg/mL (≈ 0.00666 µM)	0.0625 µg/mL (≈ 0.107 µM)	0.00391 µg/mL (≈ 0.00666 µM)	0.0625 µg/mL (≈ 0.107 µM)	≤ 0.125 µg/mL	≤ 0.125 µg/mL	≤ 0.125 µg/mL	0.125 µg/mL (≈ 0.213 µM)	MIC [2, 27]: ≤ 0.125 µg/mL; MIC [8, 28]: ≤ 0.125 µg/mL; MIC [9, 29]: ≤ 0.125 µg/mL; MIC [16]: 0.0313 µg/mL (≈ 0.0533 µM); MIC [20, 30]: 0.25 µg/mL (≈ 0.426 µM)
OC(CN1CCC2(CCC(Nc3ccc(Cc4ccccc4)cc3)CC2)C1)(Cn1cncn1)c1ccc(F)cc1F (centres unmarked) [Example 13, 1-(8-((4-benzylphenyl)amino)-2-azaspiro[4.5]decan-2-yl)-2-(2,4-difluorophenyl)-3-(1H-1,2,4-triazol-1-yl)propan-2-ol]	≤ 0.125 µg/mL	≤ 0.00098 µg/mL	≤ 0.125 µg/mL	≤ 0.125 µg/mL	0.25 µg/mL (≈ 0.448 µM)	≤ 0.125 µg/mL	≤ 0.125 µg/mL	≤ 0.125 µg/mL	≤ 0.125 µg/mL	≤ 0.125 µg/mL	0.0313 to 2 µg/mL (≈ 0.0561 to 3.59 µM)	0.25 µg/mL (≈ 0.448 µM)	0.00781 µg/mL (≈ 0.014 µM)	0.125 µg/mL (≈ 0.224 µM)	0.00049 to 0.00391 µg/mL (≈ 0.000879 to 0.00701 µM)	0.25 µg/mL (≈ 0.448 µM)	≤ 0.125 µg/mL	≤ 0.125 µg/mL	≤ 0.125 µg/mL	0.25 µg/mL (≈ 0.448 µM)	MIC [16]: 0.0625 µg/mL (≈ 0.112 µM)
OC(CN1CCC(Nc2ccc(OCc3ccccc3)cc2)CC1)(Cn1cncn1)c1ccc(F)cc1F (centres unmarked) [Example 90]	0.00391 µg/mL (≈ 0.00753 µM)	0.00391 µg/mL (≈ 0.00753 µM)	0.0625 µg/mL (≈ 0.12 µM)	0.0156 µg/mL (≈ 0.0301 µM)		0.00391 µg/mL (≈ 0.00753 µM)	0.003 µg/mL (≈ 0.00577 µM)	0.003 µg/mL (≈ 0.00577 µM)	0.00391 µg/mL (≈ 0.00753 µM)	0.0313 µg/mL (≈ 0.0602 µM)	0.00391 µg/mL (≈ 0.00753 µM)	0.00391 µg/mL (≈ 0.00753 µM)	0.00391 µg/mL (≈ 0.00753 µM)	0.008 to 0.03 µg/mL (≈ 0.0154 to 0.0577 µM)	0.00391 µg/mL (≈ 0.00753 µM)	0.0078 to 0.0313 µg/mL (≈ 0.015 to 0.0602 µM)	0.003 µg/mL (≈ 0.00577 µM)	0.003 µg/mL (≈ 0.00577 µM)	0.00781 µg/mL (≈ 0.015 µM)	0.0625 µg/mL (≈ 0.12 µM)	MIC [2, 27]: 0.0625 µg/mL (≈ 0.12 µM); MIC [8, 28]: 0.00391 µg/mL (≈ 0.00753 µM); MIC [9, 29]: 0.0313 µg/mL (≈ 0.0602 µM); MIC [16]: 0.0039 µg/mL (≈ 0.00751 µM); MIC [20, 30]: 0.0625 µg/mL (≈ 0.12 µM)
OC(CN1CCC(N2CCC(Nc3ccc(OCCN4CCOCC4)cc3)CC2)CC1)(Cn1cncn1)c1ccc(F)cc1F (centres unmarked) [Example 92]	2 µg/mL (≈ 3.2 µM)		> 32 µg/mL	32 µg/mL (≈ 51.1 µM)	32 µg/mL (≈ 51.1 µM)	4 µg/mL (≈ 6.39 µM)	32 µg/mL (≈ 51.1 µM)	8 to 32 µg/mL (≈ 12.8 to 51.1 µM)	2 to 8 µg/mL (≈ 3.2 to 12.8 µM)	> 32 µg/mL							16 µg/mL (≈ 25.6 µM)	32 µg/mL (≈ 51.1 µM)	8 µg/mL (≈ 12.8 µM)	> 32 µg/mL	
